{"source": "patent US5140037A", "about": "“Treatment of central nervous system disorders with imidazole angiotensin-II receptor antagonists” (E. I. du Pont de Nemours and Company, priority 1990, dated 1992)", "molecules": {"B1": {"name": "renin: Renin (Sigma Chemicals), a stimulator of endogenous AII biosynthesis (protein, UniProt P00797 67-406, looked up)", "Renin": "LTLGNTTSSVILTNYMDTQYYGEIGIGTPPQTFKVVFDTGSSNVWVPSSKCSRLYTACVYHKLFDASDSSSYKHNGTELTLRYSTGTVSGFLSQDIITVGGITVTQMFGEVTEMPALPFMLAEFDGVVGMGFIEQAIGRVTPIFDNIISQGVLKEDVFSFYYNRDSENSQSLGGQIVLGGSDPQHYEGNFHYINLIKTGVWQIQMKGVSVGSSTLLCEDGCLALVDTGASYISGSTSSIEKLMEALGAKKRLFDYVVKCNEGPTLPDISFHLGGKEYTLTSADYVFQESYSSKKLCTLAIHAMDIPPPTGPTWALGATFIRKFYTEFDRRNNRIGFALAR"}}, "key": {"[1]": {"tested_on": "passive avoidance response", "settings": "injected into dorsal neostriatum; cited from earlier work"}, "[2]": {"target": "AII-1 receptor", "assay": "AII-1 site binding: displacement of [125I]AII in adrenal cortex microsomes in presence of 10^-5 M EXP655 (Table 1)", "set-up": "species or system rat", "settings": "10^-5 M EXP655 present, [125I]AII displacement"}, "[3]": {"target": "T1, AII-2 receptor (Rattus norvegicus, UniProt P35351)", "T1 sequence (P35351 1-363)": "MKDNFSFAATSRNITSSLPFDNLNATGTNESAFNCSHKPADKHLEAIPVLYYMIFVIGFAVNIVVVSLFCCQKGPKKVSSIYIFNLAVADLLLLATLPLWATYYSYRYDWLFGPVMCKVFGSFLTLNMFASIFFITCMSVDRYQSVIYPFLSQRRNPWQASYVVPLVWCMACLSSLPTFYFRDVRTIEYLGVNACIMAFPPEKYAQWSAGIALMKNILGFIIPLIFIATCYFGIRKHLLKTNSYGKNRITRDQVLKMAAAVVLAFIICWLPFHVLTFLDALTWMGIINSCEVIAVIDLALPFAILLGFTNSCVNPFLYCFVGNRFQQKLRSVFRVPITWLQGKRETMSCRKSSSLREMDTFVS", "assay": "biochemical", "procedure": "IC50 was determined by displacement of [^125 I]AII from the receptor by the indicated compound."}, "[4]": {"tested_on": "AII-1 receptor subtype", "assay": "Block of AII receptor subtypes, AII-1 (statement in words)", "type": "binding"}, "[5]": {"tested_on": "AII-2 receptor subtype", "assay": "Block of AII receptor subtypes, AII-2 (statement in words)", "type": "binding"}, "[6]": {"tested_on": "renin-induced amnesia (passive avoidance)", "assay": "Renin-disrupted passive avoidance retention", "type": "in vivo, male Sprague-Dawley rats", "settings": "for effect on renin-induced amnesia: IVT, co-administered with renin", "description": "RENIN-DISRUPTED PASSIVE AVOIDANCE RETENTION\nExperimentally naive male Sprague-Dawley rats 100 to 125 days oil (Charles River Breeding Laboratories, Kingston, N.Y.), weighing between 175 to 200 gm were used. The animals were housed four per cage (45.0L×20.0H×26.0W cm) with free access to food and water. They were maintained on a 12 h light/dark cycle (lights on 0600 h) and at a room temperature of 22±1° C. with relative humidity of 50±10%.\nThe experimental sessions were conducted in a two-compartment passive avoidance box. One compartment, made of clear plastic with a perforated clear plastic floor, measured 21(L)×24.5(H)×17(W) cm and was illuminated with a 60 watt incandescent light bulb placed 36 cm above the floor. The other compartment, made of black plastic, measured 30.5 (L)×20.3 (H)×21.5 (W) cm with a floor made of 4 mm stainless steel rods spaced 1.2 cm apart. A grid floor shocker (Coulbourn Instruments) was connected to the steel rods and provided scrambled footshock. The two compartments were separated by a solenoid-operated slide door (Lafayette Instrument Co., Lafayette, Ind.). An electronic counter (Coulbourn Instruments), triggered by the opening or closing of the slide door, recorded acquisition and retention latencies (latencies were defined as the time it took an animal to enter the dark compartment).\nPassive avoidance training began by placing the rat into the clear compartment of the two-compartment passive avoidance box. Following a 10 sec delay, the slide door to the dark compartment was raised. Once the rat moved completely into the dark compartment (all four paws on the shock grid floor) the slide door was lowered, and after a 10 sec. delay, a 1.0 mA shock was applied to the grid floor for three sec. A second three s shock was delivered after an additional 10 sec delay. The rats were immediately removed from the dark compartment and returned to their home cage. A retention test was given 24 h later. It proceeded in the same manner as the training session except that no shock was applied to the grid floor when the rats were provided access to the dark compartment for a maximum of 300 sec.\nAll drugs were administered IVT 60 minutes prior to acquisition training in a volume of 5 μl. Doses are expressed as the free base weight of each compound."}, "[7]": {"tested_on": "light/dark habituation", "settings": "cited from earlier work"}, "[8]": {"tested_on": "avoidance learning", "settings": "cited from earlier work"}, "[9]": {"tested_on": "AII binding sites in the brain", "assay": "Binding of AII antagonists to sections of brain slices"}, "[10]": {"tested_on": "memory of previously learned tasks", "settings": "in vivo; cited from earlier work"}, "[11]": {"tested_on": "potassium-stimulated release of [3H]ACh", "settings": "rat entorhinal cortex, cited from earlier work"}, "[12]": {"tested_on": "ACh in the striatum and hypothalamus", "settings": "acute or repeated administration; cited from earlier work"}, "[13]": {"tested_on": "scopolamine-induced amnesia", "settings": "three times per day, 1, 3 and 10 mg/kg PO; cited from earlier work"}, "[14]": {"tested_on": "uphill avoidance", "settings": "acute, 30 mg/kg PO; cited from earlier work"}, "[15]": {"tested_on": "scopolamine-induced impairment of eight arm radial maze performance", "settings": "3 mg/kg IP; cited from earlier work"}, "[16]": {"tested_on": "AII in cerebrospinal fluid (CSF)", "settings": "cited from earlier work"}}, "note": "Entries after “also recorded” stand apart in the source; their conditions may differ.", "data": [{"molecule": "lysine-8-vasopressin", "values": [{"measurement": "retention of passive avoidance response", "setting": "[1]", "result": "no effect"}]}, {"molecule": "CNCC(=O)N[C@@H](CCCN=C(N)N)C(=O)N[C@H](C(=O)N[C@@H](Cc1ccc(O)cc1)C(=O)N[C@H](C(=O)N[C@@H](Cc1cnc[nH]1)C(=O)N1CCC[C@H]1C(=O)N[C@@H](C)C(=O)O)C(C)C)C(C)C", "note": "[Saralasin]", "values": [{"measurement": "IC50", "setting": "[2]", "result": 0.7, "unit": "nM"}, {"measurement": "IC50", "setting": "[3]", "result": 0.3, "unit": "nM"}]}, {"molecule": "NC(=O)[C@@H]1CCCN1C(=O)[C@H](Cc1cnc[nH]1)NC(=O)[C@@H]1CCC(=O)N1", "note": "[thyrotropin releasing hormone]", "values": [{"measurement": "retention of passive avoidance response", "setting": "[1]", "result": "no effect"}]}, {"molecule": "CCCc1nc(-c2ccccc2)c(C=O)n1Cc1ccc(-c2ccccc2-c2nnn[nH]2)cc1", "note": "[Compound A, 1-[(2'-(1H tetrazol-5-yl)biphenyl-4-yl)methyl]-4-phenyl-2-propylimidazole-5-carboxaldehyde]", "values": [{"measurement": "IC50", "setting": "[2]", "result": 22, "unit": "nM"}, {"measurement": "AII-1 receptor block / affinity", "setting": "[4]", "result": "show affinity for both AII-1 and AII-2 receptors"}, {"measurement": "AII-2 receptor block / affinity", "setting": "[5]", "result": "show affinity for both AII-1 and AII-2 receptors"}, {"measurement": "IC50", "setting": "[3]", "result": 2400, "unit": "nM"}]}, {"molecule": "C[C@H](CS)C(=O)N1CCC[C@H]1C(=O)O", "note": "[captopril]", "values": [{"measurement": "effect of captopril on renin-induced amnesia", "setting": "[6]; IVT captopril, applicant's laboratory", "result": "renin-induced amnesia can be prevented"}, {"measurement": "scopolamine-induced disruption of light/dark habituation performance", "setting": "[7]; daily treatment", "result": "prevented"}, {"measurement": "rate of acquisition of light/dark habituation performance", "setting": "[7]; subchronic treatment", "result": "increased the rate of acquisition of light/dark habituation performance"}, {"measurement": "renin-induced avoidance disruption", "setting": "[8]; captopril IVT prior to renin", "result": "prevented the renin-induced avoidance disruption"}]}, {"molecule": "CCCc1nc(C(F)(F)F)c(CO)n1Cc1ccc(-c2ccccc2-c2nnn[nH]2)cc1", "note": "[Compound D, 2-n-propyl-5-hydroxymethyl-1-[(2'-(1H-tetrazol-5-yl)biphenyl-4-yl)methyl]-4-trifluoromethylimidazole]", "values": [{"measurement": "effect on renin-induced amnesia", "setting": "[6]", "result": "protected against the amnesia"}, {"measurement": "AII-1 receptor block / affinity", "setting": "[4]", "result": "AII-1 receptor antagonists"}]}, {"molecule": "CCCc1nc(C(F)(F)F)c(C(=O)O)n1Cc1ccc(-c2ccccc2-c2nnn[nH]2)cc1", "note": "[Compound C, 2-n-propyl-1-[(2'-(1H -tetrazol-5-yl)biphenyl-4-yl)methyl]-4-trifluoromethylimidazole-5-carboxylic acid]", "values": [{"measurement": "effect on renin-induced amnesia", "setting": "[6]", "result": "protected against the amnesia"}, {"measurement": "AII-1 receptor block / affinity", "setting": "[4]", "result": "AII-1 receptor antagonists"}]}, {"molecule": "Cc1cc(Cn2cnc3c2CC(C(=O)O)N(C(=O)C(c2ccccc2)c2ccccc2)C3)ccc1N", "note": "(stereo not drawn) [EXP655, 1-(4-amino-3-methylphenyl)methyl-5-diphenylacetyl-4,5,6,7-tetrahydro-1H-imidazo[4,5-c]pyridine-6-carboxylic acid]", "values": [{"measurement": "IC50", "setting": "[2]", "result": 300000, "unit": "nM"}, {"measurement": "effect on renin-induced amnesia", "setting": "[6]", "result": "much less effective in preventing the amnesia"}, {"measurement": "sensitivity of AII binding sites in the brain", "setting": "[9]", "result": "the majority of binding sites in the brain are DTT-insensitive and EXP655-sensitive"}]}, {"molecule": "NCCCC[C@H](OP(=O)(O)CCCCc1ccccc1)C(=O)N1CCC[C@H]1C(=O)O", "note": "[SQ 29852]", "values": [{"measurement": "anticholinergic effect on performance", "setting": "[10]", "result": "ameliorate, at least in part, an anticholinergic effect on performance"}, {"measurement": "effects on memory of previously learned tasks", "setting": "[10]", "result": "protective effects on memory of previously learned tasks"}]}, {"molecule": "CCCc1nc(-c2ccccc2)c(C=O)n1Cc1ccc(-c2ccccc2C(=O)O)cc1", "note": "[Compound B, 1-[(2'-carboxybiphenyl-4-yl)methyl]-4-phenyl-2-propylimidazole-5-carboxaldehyde]", "values": [{"measurement": "IC50", "setting": "[2]", "result": 290, "unit": "nM"}, {"measurement": "AII-1 receptor block / affinity", "setting": "[4]", "result": "show affinity for both AII-1 and AII-2 receptors"}, {"measurement": "AII-2 receptor block / affinity", "setting": "[5]", "result": "show affinity for both AII-1 and AII-2 receptors"}, {"measurement": "IC50", "setting": "[3]", "result": 4300, "unit": "nM"}]}, {"molecule": "[1-sarcosine, 8-threonine]angiotensin II", "values": [{"measurement": "antagonism of AII effect on ACh release", "setting": "[11]; with AII", "result": "antagonized"}]}, {"molecule": "AII: Angiotensin II (AII), a circulating hormone, now thought to act as a neuropeptide in the central nervous system (DRVYIHPF; Angiotensin-2; UniProt P01019 25-32, looked up)", "values": [{"measurement": "IC50", "setting": "[2]", "result": 1.5, "unit": "nM"}, {"measurement": "basal ACh levels", "setting": "[11]", "result": "without effects on basal levels"}, {"measurement": "potassium-stimulated release of ACh", "setting": "[11]", "result": "reduced potassium-stimulated release of ACh"}, {"measurement": "retention of passive avoidance response", "setting": "[1]", "result": "showed a disruption in retention of a PA response"}]}, {"molecule": "CCOC(=O)C(CCc1ccccc1)NC(C)C(=O)N1CC2(CC3CCC2CC3)CC1C(=O)O", "note": "(stereo not drawn) [Hoe 288]", "values": [{"measurement": "ACh in the striatum and hypothalamus", "setting": "[12]", "result": "significant decrease in ACh in the striatum and hypothalamus"}, {"measurement": "scopolamine-induced PA amnesia", "setting": "[13]", "result": "partially reversed the amnesia"}, {"measurement": "uphill avoidance performance during retention testing", "setting": "[14]", "result": "improved performance during retention testing"}, {"measurement": "effects of muscarinic receptor blockade on radial maze performance", "setting": "[15]", "result": "partially antagonized the effects of muscarinic receptor blockade"}]}, {"molecule": "B1", "values": [{"measurement": "AII in CSF after renin", "setting": "[16]; renin IVT", "result": "about 5,000 fmol per mL"}, {"measurement": "AII in CSF before renin", "setting": "[16]; starting level", "result": 40, "unit": "fmol per mL"}, {"measurement": "memory effect of renin", "setting": "[6]; renin IVT", "result": "produces a reliable memory deficit; also recorded: produces a dose-related amnesia in a PA task"}, {"measurement": "Median Retention Latency", "setting": "[6]; renin alone 5.0 μg/5 μL IVT", "result": 17, "unit": "s"}, {"measurement": "avoidance learning", "setting": "[8]; renin IVT", "result": "disruption of avoidance learning"}]}]}
